{
  "source": "patent US20230218555A1",
  "about": "“CREATINE, ITS DERIVATIVES, COMPOSITIONS AND METHODS OF USE THEREOF” (priority 2021, published 2023)",
  "format_in_all_cases": "in vivo, human",
  "key": {"[1]": {"tested_on": "Aphthous Ulcers (Canker Sores)", "assay": "Example 20: aphthous ulcers (canker sores), topical", "excerpt": "Two eroded painful sites 2-3 mm in diameter on the right side of the tongue worsened over 2 days in a subject. At bedtime of the 2nd day, the subject topically applied C15 3% in water: propylene glycol 8:2."}, "[2]": {"tested_on": "osteoarthritis of the knees", "assay": "Example 24: osteoarthritis, knees", "excerpt": "Several days later, a repeated application of the same procedure gave the same results."}, "[3]": {"tested_on": "Rheumatoid Arthritis (RA)", "assay": "Example 26: rheumatoid arthritis, intralesional injection and topical", "conditions": "3-9% in WP 82 in nitrile gloves, 1 hour twice daily, after the creatine injections", "experimental": "A subject, described in an earlier Example, after approximately 4 months of worsening symptoms, and finger joint enlargements on both hands, realized that they were rapidly developing RA, especially when a rheumatoid nodule enlarged over the terminal joint of the left […] finger to a size of approximately 1 cm in diameter, and about 3 mm thick. The nodule was initially injected with 0.15 ml of a 2% aqueous solution/suspension of creatine monohydrate once weekly for 4 injections. […] Thereafter the subject wore a nitrile glove containing a few drops of C15 3-9% dissolved in WP 82 for an hour twice daily on the left hand only. After another 2 months C15 9% in WP 82 was topically applied by means of their wearing nitrile gloves containing the C15 solution for 1 hour twice daily. […] It is intended for the subject to continue topical treatment in one form or another for an indefinite time forward."}, "[4]": {"tested_on": "pruritic urticarial mosquito bite lesions", "assay": "Example 28: mosquito bite itch", "experimental": "Six subjects, 2 males and 4 females, age 31-74 years, who had gathered for a back yard cookout, suffered multiple mosquito bites. One subject carried 2 ounces of C15 6% in WEP 532 shared with the five others for topical application to the pruritic urticarial mosquito bite lesions.\nThis solution was later applied to an intensely pruritic urticarial lesion, 1 cm in diameter, due to a mosquito bite. […] Clinical evidence of the lesion began to fade about 3 minutes later, and at 5 minutes the subject had no sensory awareness of the lesion as it disappeared over the next 10-15 minutes."}, "[5]": {"tested_on": "migraine headaches and associated symptoms", "assay": "Example 29: migraine headache", "experimental": "A subject, with a history of migraine headaches and associated symptoms, presented with a recurrent episode of such that had begun during their night of sleep. Symptoms included an intense frontal headache, and feeling of light dizziness, and nausea when they turned their head. They were provided a 9% solution of C15 dissolved in WEP 532 to be applied to the forehead and temporal areas as needed to relieve symptoms. […] Relief lasted for 1-4 hours during the first day of use, and during the second day of use, the subject experienced a much longer period of relief of symptoms."}, "eczema": {"tested_on": "eczema", "assay": "Examples 30 and 37: itch and eczema", "excerpt": "subject two, with a 25 year history of eczema, was provided a topical formulation of 6% C15 in a lotion made up of hydrophilic ointment USP 35% diluted with 65% water. […] They emphasized, however, that their eczema worsens in the autumn and winter, so their final judgment needs to be delayed from the summer season to several months later.\nsubject four with a 14 year history of eczema was provided the same lotion.\nsubject three, with a history of eczema for 35 years, was provided the same solution. […] They have expressed great gratitude and hopes that the same beneficial results will persist during the autumn and winter seasons.\nsubject two, with a 25 year history of eczema, was provided a topical formulation of 6% C15 in a lotion made up of hydrophilic ointment USP 35% diluted with 65% water. After ten days of topical applications, itch was relieved for intervals of 1.5 hour up to 24 hours. […] Sites of itch were treated with prompt application of the above lotion which completely aborted further development.\nsubject four with a 14 year history of eczema was provided the same lotion. […] Patient has moved from the area and has been lost to long term follow up.\nsubject three, with a history of eczema for 35 years, was provided the same formulation. […] They expressed great gratitude and hoped that the same beneficial results would persist during the autumn and winter months.\nThey reported: “I use it sparingly. If I feel any itch or see a little patch I put it on and it's gone like the next day. […] It's so great. It's miraculous!”"}, "erythematous pharyngitis": {"tested_on": "erythematous pharyngitis", "assay": "Example 31: sore throat, spray mist", "experimental": "A subject, upon arising from bed in the morning, was acutely aware of a severe sore throat. […] They were provided, in a 2 oz spray container, a 3% aqueous solution of C15 that they sprayed into their moth toward the inflamed pharynx. […] Repeated spraying during the day were followed by longer pain free intervals. They reported that at 7 PM the last pain free interval had been 1 hour. Next morning the pharyngitis had improved, and the subject used spray mist less frequently."}, "[6]": {"tested_on": "dermatitis of uncertain etiology", "assay": "Example 32: itch of dermatitis of uncertain etiology", "experimental": "subject one who had worked planting a new rock and flower garden during the day, in the evening became acutely aware of an itch sensation in the lower back, just below the beltline. […] Itch relief lasted for 2-3 hours; three additional applications were made during the night. […] Etiology was not ascertained."}, "post trauma pain": {"tested_on": "post trauma pain", "assay": "Example 33: post trauma pain of hand", "excerpt": "A subject was provided a 9% solution of C15 in WEP 532 for possible use against itch or pain. Several weeks later they sent by e-mail the following message:\n“Yesterday I slammed the top of my hand accidentally against a door. That really hurt and I could barely move my hand. Started to ice it and then realized that I had decided to keep one bottle of the pain medicine here at the shore. […] Like a miracle. Iced it after as I could tell a welt was forming. Again at bedtime I put a little of the pain med on it in case the earlier application wore off and iced again as it was a bit swollen. Looked red and maybe a little swollen this morning but no pain!”"}, "[7]": {"conditions": "6% lotion as needed, person three"}},
  "note": "“Also recorded” adds a separate entry of the source.",
  "data": [
    {"compound": "CCOC(=O)CN(C)C(N)=NC(C)=O", "note": "[Compound C15, N-acetyl ethyl creatinate]", "values": [
      {"measurement": "extent of pain relief", "setting": "[1]; 3% in water: propylene glycol 8:2, topical to tongue", "value": "Complete pain relief"},
      {"measurement": "clinical sign of lesions next day", "setting": "[1]; 3% topical", "value": "No clinical sign of the lesions could be detected next day"},
      {"measurement": "return of pain", "setting": "[1]; 3% topical", "value": "remained pain free throughout the night and did not return"},
      {"measurement": "time to pain relief", "setting": "[1]; 3% topical", "value": "within less than a minute"},
      {"measurement": "duration of pain relief", "setting": "[2]; 8% in WP 82, even with occlusion, person, severe osteoarthritis", "value": "3 to 4", "unit": "h"},
      {"measurement": "extent of pain relief", "setting": "[2]; 8% in WP 82 on gauze wrapping occluded with plastic wrap, overnight, person", "value": "complete relief of pain"},
      {"measurement": "duration of complete relief (sleep)", "setting": "[2]; 8% with occlusion overnight", "value": 8, "unit": "h"},
      {"measurement": "diminishment of pain after removal in the morning", "setting": "[2]; 8% with occlusion, person", "value": "85-90%"},
      {"measurement": "duration of diminishment after removal", "setting": "[2]; 8% with occlusion, person", "value": "7 to 8", "unit": "h"},
      {"measurement": "appearance of hands after 9 months of treatments", "setting": "[3]", "value": "both hands appear to be completely normal"},
      {"measurement": "extent of itch relief", "setting": "[4]; 6% in WEP 532, topical, six subjects", "value": "itch was completely eradicated"},
      {"measurement": "extent of itch relief", "setting": "[4]; 6% in WEP 532, person one, lesion 1 cm", "value": "all itch sensation was gone and did not return"},
      {"measurement": "time to eradication of itch", "setting": "[4]; 6% in WEP 532, six subjects", "value": "about 1 minute"},
      {"measurement": "time to loss of itch sensation", "setting": "[4]; person one", "value": "≤ 1", "unit": "min"},
      {"measurement": "time until lesion began to fade, after itch relief", "setting": "[4]; person one", "value": "about 3 minutes"},
      {"measurement": "time of disappearance of lesion", "setting": "[4]; person one, counted from 5 minutes", "value": "10 to 15", "unit": "min"},
      {"measurement": "return of itch", "setting": "[4]; six subjects", "value": "No itch returned"},
      {"measurement": "relief of symptoms", "setting": "[5]; 9% in WEP 532, to forehead and temporal areas", "value": "relieved symptoms within a few minutes"},
      {"measurement": "duration of relief", "setting": "[5]; first day of use", "value": "1 to 4", "unit": "h"},
      {"measurement": "symptoms at end of third day", "setting": "[5]; following 3 more applications", "value": "symptoms were no longer detectable"},
      {"measurement": "follow-up", "setting": "[5]; next week", "value": "remained symptoms free over the next week of follow-up"},
      {"measurement": "itch after 4 days of application", "setting": "eczema; [7]", "value": "itch was now negligible; also recorded: itch became negligible"},
      {"measurement": "signs of eczema on skin", "setting": "eczema; [7]", "value": "skin was nearly entirely free of signs of eczema; also recorded: skin became nearly entirely free of signs of eczema"},
      {"measurement": "extent of itch relief", "setting": "eczema; 6% lotion, 2 weeks, person four", "value": "itch was relieved completely"},
      {"measurement": "duration of itch relief after a single application", "setting": "eczema; 6% lotion, person four", "value": "24 to 48", "unit": "h"},
      {"measurement": "eczema after ten days", "setting": "eczema; 6% lotion, person two", "value": "felt that their eczema was undergoing resolution"},
      {"measurement": "eczema at the end of the following February", "setting": "eczema; 6% lotion, person two", "value": "eczema was still under almost complete resolution"},
      {"measurement": "skin at the end of February", "setting": "eczema; person three", "value": "their skin has remained clear"},
      {"measurement": "relief of pain", "setting": "erythematous pharyngitis; 3% aqueous solution sprayed toward pharynx", "value": "immediate complete relief of pain"},
      {"measurement": "duration of relief, first spraying", "setting": "erythematous pharyngitis; 3% aqueous spray", "value": 25, "unit": "min"},
      {"measurement": "last pain free interval at 7 PM", "setting": "erythematous pharyngitis; repeated spraying during the day", "value": 1, "unit": "h"},
      {"measurement": "extent of itch relief", "setting": "[6]; 4% in water: propylene glycol 8:2, topical", "value": "Itch was completely relived"},
      {"measurement": "duration of itch relief", "setting": "[6]; 4% topical", "value": "2 to 3", "unit": "h"},
      {"measurement": "resolution of dermatitis and itch", "setting": "[6]; three additional applications during the night", "value": "The dermatitis and itch resolved early next day"},
      {"measurement": "relief of pain", "setting": "post trauma pain; 9% in WEP 532, topical to hand", "value": "in a minute or two the pain went away"},
      {"measurement": "pain next morning", "setting": "post trauma pain; second application at bedtime", "value": "no pain"}
    ]}
  ]
}
